Tested on: purified NO synthase from pig cerebellum or from pig liver
Test: Activity assay of purified NOS (3H-L-arginine to 3H-L-citrulline conversion)
Format: biochemical
Settings: substance 100 μM, in the presence of 2 μM tetrahydrobiopterin, 15 min at 37° C.
Experimental: The inhibition of the activity of purified nitric oxide synthase (NOS) by compounds of the general formula I can be determined as follows.
In this activity assay the L-citrulline which is a coproduct of the formation of NO by purified NOS is quantitatively measured. ^3H-radiolabeled L-arginine is employed as substrate of the enzyme reaction and is converted into ^3H-L-citrulline and NO. After completion of the enzyme incubation, generated L-citrulline is removed from unused L-arginine by ion exchange chromatography from the reaction mixture; the ^3H activity measured by liquid scintillation then is corresponds to the amount of L-citrulline, which is a direct measure of the activity of NOS.
The basic medium for carrying out the enzyme reaction is TE buffer (triethanolamine, EDTA, pH 7.0).
The final volume of each incubation is 100 μl. The reaction mixture is obtained by mixing the following 6 components on ice: • 1. “REA-Mix” (pH 7.0) which contains triethanolamine, calcium chloride, magnesium chloride, EDTA, L-arginine, calmodulin and flavin adenine dinucleotide (FAD); • 2. freshly prepared stock solution of β-nicotinamide adenine dinucleotide phosphate, reduced form (NADPH); • 3. (6R)-5,6,7,8-tetrahydro-L-biopterin dihydro-chloride stock solution (BH4) or —for experiments without BH4-instead TE buffer; • 4. purified NO synthase from pig cerebellum or from pig liver; • 5.
After mixing of the components on ice, the reaction mixture was immediately incubated in a water bath at 37° C. for 15 minutes. […] After this incubation time, the reaction was stopped by addition of 900 μl of ice-cold “stop buffer” (20 mM sodium acetate, 2 mM EDTA, pH 5.5), and the mixture (total volume now 1.0 ml) was placed on ice. To remove the unreacted ^3H-L-arginine, the mixture was loaded onto an ion exchange column with 0.8 ml of Dowex AG 50 WX-8 (100-200 mesh) which has previously been washed and equilibrated with 2 ml of stop buffer. After loading of the sample, the column was eluted twice with 1 ml of water each time. The flow-through of the sample and the eluate were collected in scintillation vessels and […] (total volume 3 ml). 9 ml of scintillator solution were added to the 3 ml of aqueous measurement solution, and the homogeneous mixture was measured in a Tricarb 2500 TR (Packard) liquid scintillation counter for 1 minute for each sample. […] Each substance was tested for an antagonistic effect in a concentration of 100 μM in the presence of 2 μM tetrahydrobiopterin, and for an agonistic effect on NOS in the absence of tetrahydrobiopterin.
All incubations were carried out on triplicates. Each experiment was repeated three times with different enzyme preparations.
In the case of “2-amino-4-(4-methylpiperazin-1-yl)-6-(4-chloro-phenyl)pteridine hemihydrate [Example 36]”, the “Remaining activity (% of Vmax)” value is reported as 64 ± 9 % of Vmax. For “2-amino-4-(4-methylpiperazin-1-yl)-6-(4-methoxy-phenyl)pteridine hemihydrate [Example 37]”, the “Remaining activity (% of Vmax)” value was 84 ± 5 % of Vmax. With “2-amino-4-(4-methylpiperazin-1-yl)-6-phenyl-pteridine hemihydrate [Example 35]” the “Remaining activity (% of Vmax)” value was 83 ± 1 % of Vmax. In the case of “2-amino-4-(morpholin-4-yl)-6-(4-methoxyphenyl)-5,6,7,8-tetrahydropteridine hydrochloride hemi-hydrate [Example 40]”, the “Remaining activity (% of Vmax)” value is reported as 66 ± 14 % of Vmax. With “2-amino-4-(morpholin-4-yl)-6-phenyl-5,6,7,8-tetra-hydropteridine dihydrochloride hemihydrate [Example 42]” the “Remaining activity (% of Vmax)” value was 51 ± 3 % of Vmax. With `CN(C)c1nc(N)nc2ncc(-c3ccccc3)nc12` [Example 11, 2-amino-4-(dimethylamino)-6-phenylpteridine] the “Remaining activity (% of Vmax)” value was 92 ± 11 % of Vmax. For `Cc1ccc(-c2cnc3nc(N)nc(N(C)C)c3n2)cc1` [Example 12, 2-amino-4-(dimethylamino)-6-(4-methylphenyl)-pteridine], the “Remaining activity (% of Vmax)” value was 15 ± 7 % of Vmax. In the case of `COc1ccc(-c2cnc3nc(N)nc(N(C)C)c3n2)cc1` [Example 13, 2-amino-4-(dimethylamino)-6-(4-methoxyphenyl)-pteridine], the “Remaining activity (% of Vmax)” value is reported as 13 ± 4 % of Vmax. For `CCN(CC)c1nc(N)nc2ncc(-c3ccccc3)nc12.O` [Example 15, 2-amino-4-(diethylamino)-6-phenylpteridine hydrate], the “Remaining activity (% of Vmax)” value was 75 ± 3 % of Vmax. For `CCN(CC)c1nc(N)nc2ncc(-c3ccc(Cl)cc3)nc12.O.O` [Example 16, 2-amino-4-(diethylamino)-6-(4-chlorophenyl)-pteridine dihydrate], the “Remaining activity (% of Vmax)” value was 42 ± 10 % of Vmax. For `CCN(CC)c1nc(N)nc2ncc(-c3ccc(OC)cc3)nc12.O` [Example 17, 2-amino-4-(diethylamino)-6-(4-methoxyphenyl)-pteridine hydrate], the “Remaining activity (% of Vmax)” value was 2 ± 0.1 % of Vmax. With `CCN(CC)c1nc(N)nc2ncc(-c3ccc(OC)c(OC)c3)nc12.O` [Example 18, 2-amino-4-(diethylamino)-6-(3,4-dimethoxyphenyl)-pteridine hydrate] the “Remaining activity (% of Vmax)” value was 23 ± 4 % of Vmax. In the case of `Nc1nc(N(Cc2ccccc2)Cc2ccccc2)c2nc(-c3ccccc3)cnc2n1.O.O` [Example 19, 2-amino-4-(dibenzylamino)-6-phenylpteridine dihydrate], the “Remaining activity (% of Vmax)” value is reported as 0 ± 0.05 % of Vmax. In the case of `CCCN(CCC)c1nc(N)nc2ncc(-c3ccccc3)nc12.O.O.O` [Example 23, 2-amino-4-(di-n-propylamino)-6-phenylpteridine trihydrate], the “Remaining activity (% of Vmax)” value is reported as 77 ± 16 % of Vmax. With `CCCN(CCC)c1nc(N)nc2ncc(-c3ccc(Cl)cc3)nc12.O.O.O` [Example 24, 2-amino-4-(di-n-propylamino)-6-(4-chlorophenyl)-pteridine trihydrate] the “Remaining activity (% of Vmax)” value was 7 ± 4 % of Vmax. For `CCCN(CCC)c1nc(N)nc2ncc(-c3ccc(OC)cc3)nc12.O` [Example 25, 2-amino-4-(di-n-propylamino)-6-(4-methoxyphenyl)-pteridine hydrate], the “Remaining activity (% of Vmax)” value was 25 ± 12 % of Vmax. For `CCCN(CCC)c1nc(N)nc2ncc(-c3ccc(OC)c(OC)c3)nc12.O` [Example 26, 2-amino-4-(di-n-propylamino)-6-(3,4-dimethoxy-phenyl)pteridine hydrate], the “Remaining activity (% of Vmax)” value was 0 % of Vmax. With `Nc1nc(N2CCOCC2)c2nc(-c3ccccc3)cnc2n1.O` [Example 27, 2-amino-4-(morpholin-4-yl)-6-phenylpteridine hydrate] the “Remaining activity (% of Vmax)” value was 41 ± 8 % of Vmax. With `Cl.Nc1nc(N2CCOCC2)c2nc(-c3ccc(Cl)cc3)cnc2n1.O` [Example 28, 2-amino-4-(morpholin-4-yl)-6-(4-chlorophenyl)-pteridine hydrochloride hydrate] the “Remaining activity (% of Vmax)” value was 3 ± 1.5 % of Vmax. With `COc1ccc(-c2cnc3nc(N)nc(N4CCOCC4)c3n2)cc1OC.O.O.O` [Example 30, 2-amino-4-(morpholin-4-yl)-6-(3,4-dimethoxy-phenyl)pteridine trihydrate] the “Remaining activity (% of Vmax)” value was 5 ± 3 % of Vmax. With `Nc1nc(N2CCCCC2)c2nc(-c3ccccc3)cnc2n1.O.O` [Example 31, 2-amino-4-(piperidin-1-yl)-6-phenylpteridine dihydrate] the “Remaining activity (% of Vmax)” value was 0 ± 0.05 % of Vmax. In the case of `Nc1nc(N2CCCCC2)c2nc(-c3ccc(Cl)cc3)cnc2n1.O.O` [Example 32, 2-amino-4-(piperidin-1-yl)-6-(4-chlorophenyl)-pteridine dihydrate], the “Remaining activity (% of Vmax)” value is reported as 3 ± 1 % of Vmax. With `COc1ccc(-c2cnc3nc(N)nc(N4CCN(C)CC4)c3n2)cc1OC.O.O` [Example 38, 2-amino-4-(4-methylpiperazin-1-yl)-6-(3,4-di-methoxyphenyl)pteridine dihydrate] the “Remaining activity (% of Vmax)” value was 99 ± 16 % of Vmax. In the case of `COc1ccc(-c2cnc3nc(N)nc(N4CCCC4)c3n2)cc1.O.O` [Example 39, 2-amino-4-(pyrrolidin-1-yl)-6-(4-methoxyphenyl)-pteridine dihydrate], the “Remaining activity (% of Vmax)” value is reported as 30 ± 5 % of Vmax. In the case of `COc1ccc(C2CNc3nc(N)nc(N4CCOCC4)c3N2)cc1OC.Cl.O` (stereo not drawn) [Example 41, 2-amino-4-(morpholin-4-yl)-6-(3,4-dimethoxy-phenyl)-5,6,7,8-tetrahydropteridine hydrochloride hydrate], the “Remaining activity (% of Vmax)” value is reported as 68 ± 11 % of Vmax. With `Cl.Cl.Cl.Nc1nc2c(c(N3CCCCC3)n1)NC(c1ccc(Cl)cc1)CN2.O` (stereo not drawn) [Example 43, 2-amino-4-(piperidin-1-yl)-6-(4-chlorophenyl)-5,6,7,8-tetrahydropteridine trihydrochloride hydrate] the “Remaining activity (% of Vmax)” value was 0 % of Vmax.

Tested on: NO synthase
Test: not given
Settings: literature reports on BH4 analogues; cited from earlier work
In the case of `CC1CNc2nc(N)[nH]c(=O)c2C1` (stereo not drawn) [5-deaza-6-methyl-5,6,7,8-tetrahydropterin], the “effect on NO production / NO synthase” value is given as “weak inhibition”. In the case of `CC1Nc2nc(N)[nH]c(=O)c2NC1C` (stereo not drawn) [6,7-dimethyl-5,6,7,8-tetrahydropterin], the “effect on NO production / NO synthase” value is given as “no significant effects”. For `CC1CNc2nc(N)[nH]c(=O)c2N1` (stereo not drawn) [6-methyl-5,6,7,8-tetrahydropterin], the “effect on NO production / NO synthase” value is given as “able to partly replace the natural cofactor”. For `CC(O)C(O)C1CNc2c(nc(N)[nH]c2=O)N1` (stereo not drawn) [7-R/S-BH4], the “effect on NO production / NO synthase” value is listed as “able to partly replace the natural cofactor”. In the case of `C[C@@H](O)[C@@H](O)[C@H]1CNc2nc(N)[nH]c(=O)c2N1` [Example 6S-BH4, 6S-BH4], the “effect on NO production / NO synthase” value is given as “able to partly replace the natural cofactor”. For `C[C@H](O)[C@H](O)C1=Nc2c(nc(N)[nH]c2=O)NC1` [dihydrobiopterin], the “effect on NO production / NO synthase” value is given as “able to partly replace the natural cofactor”. For `Nc1nc2c(c(=O)[nH]1)N=C(CNc1ccc(C(=O)N[C@@H](CCC(=O)O)C(=O)O)cc1)CN2` [dihydrofolic acid], the “effect on NO production / NO synthase” value is listed as “no significant effects”. For `Nc1nc2c(c(=O)[nH]1)N=C([C@H](O)[C@H](O)CO)CN2` [dihydroneopterin], the “effect on NO production / NO synthase” value is given as “no significant effects”. For `Nc1nc2ncc(CNc3ccc(C(=O)N[C@@H](CCC(=O)O)C(=O)O)cc3)nc2c(=O)[nH]1` [folic acid], the “effect on NO production / NO synthase” value is listed as “no significant effects”. In the case of `Nc1nc2[nH]c(=O)cnc2c(=O)[nH]1` [isoxanthopterin], the “effect on NO production / NO synthase” value is given as “no significant effects”. For `CN(Cc1cnc2nc(N)nc(N)c2n1)c1ccc(C(=O)N[C@@H](CCC(=O)O)C(=O)O)cc1` [methotrexate], the “effect on NO production / NO synthase” value is listed as “no significant effects”. In the case of `Nc1nc2ncc([C@H](O)[C@H](O)CO)nc2c(=O)[nH]1` [neopterin], the “effect on NO production / NO synthase” value is listed as “no significant effects”. For `Nc1nc2nccnc2c(=O)[nH]1` [pterin], the “effect on NO production / NO synthase” value is given as “no significant effects”.

From patent US6844343B1, “N-substituted 4-aminopteridines, synthesis and use thereof as pharmaceutical agent” (Vasopharm Biotech GmbH, priority 1999, dated 2005)
